Test results taken from US20240382471A1, “GLUCAGON-LIKE PEPTIDE-1 RECEPTOR MODULATORS AND USES THEREOF” (HEPAGENE THERAPEUTICS (HK) LIMITED, priority 2021, published 2024).

Target: GLP1R (Homo sapiens, UniProt P43220)
Experiment: GLP1R/CRE-Luc luciferase reporter gene assay (agonist activity)
Assay type: cell-based
Set-up: host or cells: HKE293 (so in the source)
Conditions: HKE293-Human GLP1R/CRE-luc cells, 5 h at 37° C., read-out: EC50 (nM) Assay 2
Description: GLP1R-mediated agonist activity was determined with a cell-based functional assay utilizing a britelite plus luciferase reporter gene assay system. The stable cell line overexpress GLP1R and target response element. The stimulation with GLP1R agonist results in the upregulation of intracellular cAMP, which regulate the activities of cAMP-response element binding protein (CREB) and CREB-Luc. Reagents and equipment used in the assay are listed below, followed by the protocol.
• 1) Cell Line: HKE293-Human GLP1R/CRE-luc • 2) Complete Medium: DMEM+10% FBS+1×Penicillin-Streptomycin+400 μg/mL G418
• a) Seed HKE293-Human GLP1R/CRE-luc cells at 20,000 cells/well into 384 well assay plate (6007680-50, PE) using complete medium and incubate overnight. • b) Prepare 6×compound working solution with Medium. • c) Add 5 μL 6×compound working solution into cell plate, incubate 5 h at 37° C. • d) Add 20 μl britelite plus Luciferase Assay Reagent into each well of 384-well assay plate. • e) Record the luminescence value on Envision plate reader.
• 3.1% Activity is calculated as follow:
% Activity=(Signalcmpd−SignalAve_VC)/(SignalAve_PC−SignalAve_VC)×100. • 3.2 Calculate EC50 and Plot effect-dose curve of cmpds:
Y=Bottom+(Top−Bottom)/(1+10^((Log EC50−X)*HillSlope)) • X: log of agonist concentration; Y: % Activity.

Chain of GLP1R (P43220 24-463): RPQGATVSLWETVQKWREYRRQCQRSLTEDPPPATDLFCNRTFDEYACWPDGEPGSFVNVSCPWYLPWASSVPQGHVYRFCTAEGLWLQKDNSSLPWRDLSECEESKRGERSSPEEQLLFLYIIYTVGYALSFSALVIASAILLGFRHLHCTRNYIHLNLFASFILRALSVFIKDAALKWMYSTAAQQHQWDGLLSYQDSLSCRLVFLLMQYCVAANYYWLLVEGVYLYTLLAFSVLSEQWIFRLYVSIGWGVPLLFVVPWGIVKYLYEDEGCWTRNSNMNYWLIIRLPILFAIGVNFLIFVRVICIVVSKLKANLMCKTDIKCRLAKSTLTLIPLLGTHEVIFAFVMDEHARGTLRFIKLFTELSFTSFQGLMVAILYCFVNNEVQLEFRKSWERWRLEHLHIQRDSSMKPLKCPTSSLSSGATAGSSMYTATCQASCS

| EC50 | Structure (SMILES) |
| --- | --- |
| 28.1 nM | COc1cc(C#N)ccc1COc1nc(C23CCN(Cc4nc5c(OC)cc(C(=O)O)cc5n4C[C@@H]4CCO4)CC2C3)ccc1OC (stereo partly drawn) [Compound 1-30, 2-((6-(6-((4-cyano-2-methoxybenzyl)oxy)-5-methoxypyridin-2-yl)-3-azabicyclo[4.1.0]heptan-3-yl)methyl)-4-methoxy-1-(((S)-oxetan-2-yl)methyl)-1H-benzo[d]imidazole-6-carboxylic acid] |
| 2.6 nM | COc1cc(C#N)ccc1COc1ccnc(C23CCN(Cc4nc5c(Cl)cc(C(=O)O)cc5n4C[C@@H]4CCO4)CC2C3)n1 (stereo partly drawn) [Compound 1-46, 4-chloro-2-((6-(4-((4-cyano-2-methoxybenzyl)oxy)pyrimidin-2-yl)-3-azabicyclo[4.1.0]heptan-3-yl)methyl)-1-(((S)-oxetan-2-yl)methyl)-1H-benzo[d]imidazole-6-carboxylic acid] |
| 5.55 nM | COc1cc(C#N)ccc1COc1cccc(C23CCN(Cc4nc5ccc(C(=O)O)cc5n4C[C@@H]4CCO4)CC2C3)n1 (single isomer, unassigned) [Compound 1-6-A] |
| 0.95 nM | COc1cc(C#N)ccc1COc1cccc(C23CCN(Cc4nc5c(Cl)cc(C(=O)O)cc5n4C[C@@H]4CCO4)CC2C3)n1 (stereo partly drawn) [Compound 1-25, 4-chloro-2-((6-(6-((4-cyano-2-methoxybenzyl)oxy)pyridin-2-yl)-3-azabicyclo[4.1.0]heptan-3-yl)methyl)-1-(((S)-oxetan-2-yl)methyl)-1H-benzo[d]imidazole-6-carboxylic acid] |
| 0.33 nM | CCn1cncc1Cn1c(CN2CCC3(c4nccc(OCc5ccc(C(F)(F)F)cc5OC)n4)CC3C2)nc2c(OC)cc(C(=O)O)cc21 (stereo not drawn) [Compound 1-48, 1-((1-ethyl-1H-imidazol-5-yl)methyl)-4-methoxy-2-((6-(4-((2-methoxy-4-(trifluoromethyl)benzyl)oxy)pyrimidin-2-yl)-3-azabicyclo[4.1.0]heptan-3-yl)methyl)-1H-benzo[d]imidazole-6-carboxylic acid] |
| 2.68 nM | COc1nc(C#N)ccc1COc1ccnc(C23CCN(Cc4nc5c(OC)cc(C(=O)O)cc5n4C[C@@H]4CCO4)CC2C3)n1 (stereo partly drawn) [Compound 1-35, 2-((6-(4-((6-cyano-2-methoxypyridin-3-yl)methoxy)pyrimidin-2-yl)-3-azabicyclo[4.1.0]heptan-3-yl)methyl)-4-methoxy-1-(((S)-oxetan-2-yl)methyl)-1H-benzo[d]imidazole-6-carboxylic acid] |
| 6.66 nM | COc1cc(C#N)ccc1COc1cccc(C23CCN(Cc4nc5c(C#N)cc(C(=O)O)cc5n4C[C@@H]4CCO4)CC2C3)n1 (stereo partly drawn) [Compound 1-17, 4-cyano-2-((6-(6-((4-cyano-2-methoxybenzyl)oxy)pyridin-2-yl)-3-azabicyclo[4.1.0]heptan-3-yl)methyl)-1-(((S)-oxetan-2-yl)methyl)-1H-benzo[d]imidazole-6-carboxylic acid] |
| 10.2 nM | C#Cc1ccc(COc2ccnc(C34CCN(Cc5nc6c(OC)cc(C(=O)O)cc6n5C[C@@H]5CCO5)CC3C4)n2)c(OC)c1 (stereo partly drawn) [Compound 1-49, 2-((6-(4-((4-ethynyl-2-methoxybenzyl)oxy)pyrimidin-2-yl)-3-azabicyclo[4.1.0]heptan-3-yl)methyl)-4-methoxy-1-(((S)-oxetan-2-yl)methyl)-1H-benzo[d]imidazole-6-carboxylic acid] |
| 6.5 nM | COc1cc(C#N)ccc1COc1ccnc(C23CCN(Cc4nc5c(OC(C)C)cc(C(=O)O)cc5n4C[C@@H]4CCO4)CC2C3)n1 (stereo partly drawn) [Compound 1-42, 2-((6-(4-((4-cyano-2-methoxybenzyl)oxy)pyrimidin-2-yl)-3-azabicyclo[4.1.0]heptan-3-yl)methyl)-4-isopropoxy-1-(((S)-oxetan-2-yl)methyl)-1H-benzo[d]imidazole-6-carboxylic acid] |
| 35.8 nM | COc1nc(C#N)ccc1COc1cccc(C23CCN(Cc4nc5ccc(C(=O)O)cc5n4C[C@@H]4CCO4)CC2C3)n1 (stereo partly drawn) [Compound 1-13, 2-((6-(6-((6-cyano-2-methoxypyridin-3-yl)methoxy)pyridin-2-yl)-3-azabicyclo[4.1.0]heptan-3-yl)methyl)-1-(((S)-oxetan-2-yl)methyl)-1H-benzo[d]imidazole-6-carboxylic acid] |
| 0.34 nM | CCOc1cc(C(=O)O)cc2c1nc(CN1CCC3(c4nccc(OCc5ccc(C#N)cc5OC)n4)CC3C1)n2C[C@@H]1CCO1 (stereo partly drawn) [Compound 1-41, 2-((6-(4-((4-cyano-2-methoxybenzyl)oxy)pyrimidin-2-yl)-3-azabicyclo[4.1.0]heptan-3-yl)methyl)-4-ethoxy-1-(((S)-oxetan-2-yl)methyl)-1H-benzo[d]imidazole-6-carboxylic acid] |
| 39.1 nM | COc1cc(C#N)ccc1COc1cncc(C23CCN(Cc4nc5ccc(C(=O)O)cc5n4C[C@@H]4CCO4)CC2C3)n1 (stereo partly drawn) [Compound 1-21, 2-((6-(6-((4-cyano-2-methoxybenzyl)oxy)pyrazin-2-yl)-3-azabicyclo[4.1.0]heptan-3-yl)methyl)-1-(((S)-oxetan-2-yl)methyl)-1H-benzo[d]imidazole-6-carboxylic acid] |
| 3.05 nM | COc1cc(C#N)ccc1COc1cccc(C23CCN(Cc4nc5c(F)cc(C(=O)O)cc5n4C[C@@H]4CCO4)CC2C3)n1 (stereo partly drawn) [Compound 1-23, 2-((6-(6-((4-cyano-2-methoxybenzyl)oxy)pyridin-2-yl)-3-azabicyclo[4.1.0]heptan-3-yl)methyl)-4-fluoro-1-(((S)-oxetan-2-yl)methyl)-1H-benzo[d]imidazole-6-carboxylic acid] |
| 29 nM | CCOc1cc(C#N)ccc1COc1ccnc(C23CCN(Cc4nc5c(OC)cc(C(=O)O)cc5n4C[C@@H]4CCO4)CC2C3)n1 (stereo partly drawn) [Compound 1-39, 2-((6-(4-((4-cyano-2-ethoxybenzyl)oxy)pyrimidin-2-yl)-3-azabicyclo[4.1.0]heptan-3-yl)methyl)-4-methoxy-1-(((S)-oxetan-2-yl)methyl)-1H-benzo[d]imidazole-6-carboxylic acid] |
| 26.4 nM | COc1cc(Cl)ccc1COc1cccc(C23CCN(Cc4nc5ccc(C(=O)O)cc5n4C[C@@H]4CCO4)CC2C3)n1 (stereo partly drawn) [Compound 1-12, 2-((6-(6-((4-chloro-2-methoxybenzyl)oxy)pyridin-2-yl)-3-azabicyclo[4.1.0]heptan-3-yl)methyl)-1-(((S)-oxetan-2-yl)methyl)-1H-benzo[d]imidazole-6-carboxylic acid] |
| 266 nM | COc1cc(C#N)ccc1COc1cccc(C23CCN(Cc4nc5c(F)cc(C(=O)NS(C)(=O)=O)cc5n4C[C@@H]4CCO4)CC2C3)n1 (stereo partly drawn) [Compound 7-1, 2-((6-(6-((4-cyano-2-methoxybenzyl)oxy)pyridin-2-yl)-3-azabicyclo[4.1.0]heptan-3-yl)methyl)-4-fluoro-N-(methylsulfonyl)-1-(((S)-oxetan-2-yl)methyl)-1H-benzo[d]imidazole-6-carboxamide] |
| 102 nM | COc1cc(C#N)ccc1COc1ccnc(C23CCN(Cc4nc5ccc(C(=O)O)cc5n4C[C@@H]4CCO4)CC2C3)n1 (single isomer, unassigned) [Compound 1-26-A] |
| 168 nM | COc1c(COc2cccc(C34CCN(Cc5nc6ccc(C(=O)O)cc6n5C[C@@H]5CCO5)CC3C4)n2)ccc(C#N)c1F (stereo partly drawn) [Compound 1-29, 2-((6-(6-((4-cyano-3-fluoro-2-methoxybenzyl)oxy)pyridin-2-yl)-3-azabicyclo[4.1.0]heptan-3-yl)methyl)-1-(((S)-oxetan-2-yl)methyl)-1H-benzo[d]imidazole-6-carboxylic acid] |
